Results taken from patent US5948786A, “Piperidinylpyrimidine derivatives” (Sumitomo Pharmaceuticals Company, Limited, priority 1996, dated 1999).

Legend:
Format in all cases: cell-based
[1] = test system: HIV-1 LTR-CAT gene expression in Jurkat cells; test: PMA induced HIV-1 LTR-CAT gene expression in Jurkat cells; settings: Homo sapiens, PMA 10 ng/ml, 24 hours
Method: (§1) p469, HIV-1 LTR driven CAT and pSV-Tat, Tat-expression vector were kindly provided from Dr. Gary J. Nabel (Nature Vol. 326, 711(1987))
(§2) RPMI 1640 medium (Life Technologies, Grand Island, N.Y., USA) was supplemented with heat-inactivated fetal calf serum (FBS; Sigma, St. Louis, Mo., USA).
(§3) Human T lymphoma cell line, Jurkat, was cultured in medium described above Transfection;
(§4) Introduction of plasmid DNA into cells was carried out according to the method described in Chiang, J. Li et al., Proc. Natl. Acad. Sci. Vol. 92, 5461-5464 (1995). Briefly, the cells were suspended with the medium at 2×10^7 cells/ml followed by addition 1 μg of p469 and 0.5 μg of DEAE-dextran (Sigma). In some experiments the cells were co-transfected with 0.5 μg of pSV-Tat. After 10 minutes incubation at room temperature with occasionally mixing, the cells were pulsed with electroporation apparatus at 140 V. The cells were re-suspended with the fresh medium and cultured for 20 hours at 37° C.
(§5) A compound tested was dissolved in dimethylsulfoxide at 100 mM as a stock solution. The aliquots of the stock solution were kept frozen at -20° C. Jurkat cells transfected with p469 were treated with 10 ng/ml of phorbol 12-myristate 13-acetate (PMA; Sigma) to activate HIV-1-LTR directed CAT gene transcription in the presence of the compound. In the case of cells transfected with p469 and pSV-Tat, they were simply treated with the compound. After the cells were cultured for an additional 24 hours at 37° C., the cells were washed 2 times with phosphate-buffered saline and lysed in 50 mM Tris-HCl plus 15% glycerol with repeated cycles of freeze and thaw. The cell lysates were clarified by centrifugation followed by determination of protein concentration by Bradford method (Bio-Rad, Hercules, Calif., USA). Measurement of a CAT activity in cell lysates was carried out according to a similar method described in Fridovich-Keil J. L. et. al., Cell Growth and Differentiation, Vol. 2, 67-76(1991). Equal amount (30 μg of protein) of cell lysates was incubated at 37° C. with 35 μg of acetyl co-enzyme A (GIBCO/BRL, Grand Island, Mo., USA) and 0.1 μCi of 14C-chloramphenicol (Dupont, NEN Boston, Mass., USA) in […] solution for 2 hours. Acetyl-14C-chloramphenicol was extracted with 9 volumes of ethyl acetate and fractionated on a TLC gel with 1:19 (v/v) in methanol/chloroform. The CAT activity was detected by autoradiography and quantified by an Imaging Densitometer (model GS-700; Bio-Rad).

[2] = test system: Tat induced HIV-1 LTR-CAT gene expression in Jurkat cells; test: Tat induced HIV-1 LTR-CAT gene expression in Jurkat cells; settings: Homo sapiens, Tat (pSV-Tat), 24 hours
Method: as §1, §2, §3, §4, §5

[3] = test system: TNF α production from human peripheral blood mononuclear cells (PBMC); test: Inhibitory activity of compound on TNF α production from PBMC
Method: TNF α was induced by 10 μg/ml of LPS (E. coli O111B4, DIFCO, Detroit, Mich., USA) the cells were cultured for 18 hours at 37° C. A compound of the present invention was dissolved in DMSO and added to the culture simultaneously with LPS. […] Each well of the plate first was incubated at room temperature with biotinylated anti-mouse TNF α polyclonal antibodies (PharMingen) for 45 minutes, then with peroxidase-conjugated streptavidin (Kirkegaard & Perry Laboratories Inc., Gaitherburg, Md., USA) for 30 minutes. After each incubation, the plate was washed 4 to 8 times with PBS containing 0.2% Tween 20. TMB (Kirkegaard & Perry Laboratories Inc.) was the peroxidase substrate used and, the absorbance of each well was quantified at 450 nm by a microplatereader (Molecular Devices Corp., CA, USA). TNF α levels in the supernatant were quantified with rm-TNF α as the standard. Inhibitory activity of TNF α production was also quantified using human peripheral blood mononuclear cells(PBMC) instead of PEC's. Results are shown in table 9, 10, 11, 12, 13, 14, 15, 16, 17, 18, 19 and 20.

[4] = test system: TNF α production from mouse macrophages; test: Inhibitory activity of compound on TNF α Production from mouse macrophages (LPS-induced PEC's); settings: Macrophage, LPS 10 μg/ml, 18 hours
Summary of the method: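 Thioglycollate-elicited peritoneal macrophages from female BALB/c mice (adherent, 2×10^5 cells/well) were stimulated with 10 μg/ml LPS plus compound (final DMSO below 0.1%) for 18 h at 37°C. Supernatant TNF α was measured by sandwich ELISA (TMB, 450 nm) against a recombinant mouse TNF α standard.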

SMILES	inhibition at 5 µM [1] [%]	inhibition at 5 µM [2] [%]	inhibition at 30 µM [3] [%]	inhibition at 30 µM [4] [%]
Nc1nc(C2CCN(C(=O)c3ccc4c(c3)OCO4)CC2)c2ccccc2n1 [Example 65]	94	81	46	–
Nc1nc(-c2ccccc2)cc(C2CCN(C(=O)c3ccc4c(c3)OCO4)CC2)n1 [Example 140]	100	–	35	72
COc1ccc(Cc2cc(C3CCN(C(=O)c4ccc5c(c4)OCO5)CC3)nc(N)n2)cc1 [Example 210, 2-amino-4-(4-methoxybenzyl)-6-[1-(3,4-methylenedioxybenzoyl)-4-piperidinyl]pyrimidine]	81	66	80	75
Nc1nc(C2CCN(C(=O)c3ccc4c(c3)OCO4)CC2)c2cc(Cl)ccc2n1 [Example 130]	67	–	57	100
Nc1nc(CCc2ccccc2)cc(C2CCN(C(=O)c3ccc4c(c3)OCO4)CC2)n1 [Example 259]	25	51	68	–
COc1cccc(Cc2cc(C3CCN(C(=O)c4ccc5c(c4)OCO5)CC3)nc(N)n2)c1 [Example 305]	–	72	80	–
COc1ccc(-c2cc(C3CCN(C(=O)c4ccc5c(c4)OCO5)CC3)nc(N)n2)cc1 [Example 157]	81	–	37	84
Nc1nc(Cc2ccc(Cl)cc2Cl)cc(C2CCN(C(=O)c3ccc4c(c3)OCO4)CC2)n1 [Example 312]	–	65	57	–
COc1cc(Cc2cc(C3CCN(C(=O)c4ccc5c(c4)OCO5)CC3)nc(N)n2)cc(OC)c1 [Example 308]	–	70	87	–
COc1ccc(OC)c(Cc2cc(C3CCN(C(=O)c4ccc5c(c4)OCO5)CC3)nc(N)n2)c1 [Example 307]	97	66	81	–
Nc1nc(-c2ccc(Cl)cc2)cc(C2CCN(C(=O)c3ccc4c(c3)OCO4)CC2)n1 [Example 150]	54	–	11	100
Nc1nc(Cc2c(Cl)cccc2Cl)cc(C2CCN(C(=O)c3ccc4c(c3)OCO4)CC2)n1 [Example 313]	–	69	91	–
COc1ccc(Cc2cc(C3CCN(C(=O)c4ccc5c(c4)OCO5)CC3)nc(N)n2)cc1OC [Example 306]	75	22	85	–
COc1cc(Cc2cc(C3CCN(C(=O)c4ccc5c(c4)OCO5)CC3)nc(N)n2)cc(OC)c1OC [Example 309]	–	62	65	–
COc1ccc2nc(N)nc(C3CCN(C(=O)c4ccc5c(c4)OCO5)CC3)c2c1 [Example 117]	92	36	43	54
Nc1nc(Cc2ccccc2Cl)cc(C2CCN(C(=O)c3ccc4c(c3)OCO4)CC2)n1 [Example 310]	–	67	83	–
Nc1nc(Cc2ccc3c(c2)OCO3)cc(C2CCN(C(=O)c3ccc4c(c3)OCO4)CC2)n1 [Example 314]	–	76	84	–
